Source: patent publication US7910624B1, “Compositions for the treatment of blood disorders” (The Trustees of Boston University, priority 1995, dated 2011)

Tests used:
[1] = test system: proximal promoter of the gamma globin gene in K562 cells; assay: Gamma globin promoter-neomycin (NEO) transfection, colony survival in G418; format: cell-based, human; settings: 1 mM, 8 weeks
Protocol: Gamma globin promoter-neomycin transfection experiments were performed to determine if compounds act by inducing an increase in activity from the proximal promoter of the gamma globin gene. Constructs containing 61 by of the proximal gamma globin promoter were linked to the reporter gene for neomycin phosphotransferase (NEO) and transfected into permissive K562 cells by electroporation. After 18 hours, transfected cells were passed at 10^3 cells per well into RPMI media containing G418 (neomycin), which kills all mammalian cells unless the gene for NEO is expressed. Phenoxyacetic acid and thiophenoxyacetic acid were added to some of the cells plated into the RPMI/G418 media at concentrations of 1 mM. Cultures were incubated for 8 weeks with media changes performed as needed. Colonies which survived and grew in the presence of G418 were scored and the number of such colonies was compared to those generated when the cells were plated into G418 media without the test compounds. No colonies in the 24 wells survived in the absence of compounds. There was a greater than 6-fold (>600%) increase in proportions of colonies surviving the presence of phenoxyacetic acid (6/24 wells) and a three-fold (300%) increase in survival in the presence of thiophenoxyacetic acid (3/24 wells).

anemic juvenile baboons = assay: In vivo reticulocyte proliferation and globin expression in phlebotomized anemic baboons; set-up: species or system baboon
Protocol: Experiments were performed to determine if administration of the chemical compositions could induce fetal globin gene expression in an in vivo model similar to humans (S. P. Perrin et al., Brit. J. Haematol. 88:555-61, 1994). Briefly, chemicals were prepared as sterile pharmaceutical solutions in pH adjusted sterile water. A variety of chemical compositions were administered sequentially to some baboons. After administration of one compound, a wash-out period with no compound administration was maintained until reticulocytes returned to base line prior to administration of the next compound. This was done, at least partly, to compare the magnitude of response which occurred within the same individual animal to different compounds.
Briefly, juvenile female baboons (2 years old) were catheterized with arterial and venous catheters and phlebotomized gradually every day to maintain a moderate anemia of 7.0 to 7.5 grams hemoglobin/dl. Fetal reticulocytes, the newly produced red blood cells containing fetal globin, were assayed using a monoclonal antibody against fetal globin (HbF) as described by G. Dover et al. (Blood 67:735-38, 1986). Briefly, blood was stained with two antibodies, one specific for reticulocytes and another against fetal globin protein. The amount of antibody bound cells was determined by FACS analysis. Globin chain synthesis was assayed as described by J. B. Clegg et al. (J. Mol. Biol. 19:91-108, 1966). Briefly, reticulocytes were radio-labeled with ^3H-leucine which was incorporated in equal proportions into actively synthesized globin chains. After incubation in leucine-free media, cells were washed, and globin proteins were separated and purified by column chromatography. Radioactivity incorporated into each peak is compared and the ratios of gamma to gamma plus beta globin calculated. Each animal served as its own control with baseline monitoring assays performed for 4-6 weeks before any drug was administered. Phlebotomy was continued daily, so that peripheral HbF levels in the animals were not considered to be accurate over the short treatment time-frames and were not monitored. Safety monitoring was performed by frequent physical examinations, quantitation of food eaten, activity and frequent chemistry and hematology monitoring. Complete blood counts were assayed before, during and after treatment. Results presented were not adjusted to account for the daily phlebotomy.

[2] = test system: system A transport in K562 cells and nucleated erythroblasts from fetal liver; assay: System A (neutral amino acid) transport, 3H-MAIB uptake; format: cell-based, human; settings: 1 hour incubation; FIG. 12
Protocol: Inhibition of nutrient uptake is undesirable for treatment of anemias. Methyl aminoisobutyric acid (MAIB) labeled with tritium (^3H) is normally taken up by system A amino acid transport. Cold (unlabeled) compounds were added to cultures containing ^3H-MAIB and incubated for 1 hour. Cells were harvested and the amount of ^3H taken up by cells was quantitated by scintillation counting.

[3] = test system: erythroid progenitor cells cultured from human cord blood; assay: Fetal globin expression in human cell cultures (3H-leucine labelled globin chains, densitometry); format: cell-based; settings: for Gamma Increase: Exp. B, 12-13 days
Protocol: Compositions were tested for activity in inducing fetal globin expression and protein production in erythroid progenitor cells cultured from human cord blood and analyzed as described by S. P. Perrine et al. (Blood 74: 454-60, 1989). Briefly, mononuclear cells were cultured in IMDM with 30% fetal calf serum and 2 units erythropoietin per ml to induce erythroid differentiation. Colonies were harvested on day 12-13, incubated with radio-labelled (^3H) leucine, and further incubated in leucine-free media, still in the presence of compounds, overnight. Globin composition in the erythroid cells was analyzed by laser densitometry of electrophoretically separated globin chains stained with Coomassie blue, and by autoradiography. Treated cells were incubated for 12-13 days (Table 2, Experiments A and B) or overnight (Table 2, Experiment C) in the presence of the indicated compounds and compared to untreated control cells cultured from the same human subject.

[4] = test system: Human erythroleukemia cells; assay: Fetal globin mRNA in erythroleukemia cells by primer extension; format: cell-based; settings: 1.0 mM, 4 days
Protocol: Compounds were tested for increased expression of the human globin genes in human erythroid cells. In addition, as the cell line being tested is a tumor cell line, the assay determines if differentiation, a growth inhibitory effect on cancer cells, is induced by the compounds tested. Human erythroleukemia cells were cultured in RPMI media with 10% fetal calf serum alone or with treatment with various compounds for 4 days. Globin mRNA was quantitated by primer extension analysis. Fetal globin mRNA was compared to the amount of fetal globin mRNA produced in untreated cells during the same culture period. The quantitation was expressed as a percent of alpha globin mRNA which was constant. Results are expressed proportional to α-globin mRNA (Table 3).

O=C(O)CSc1ccccc1 [thiophenoxyacetic acid]
increase in proportions of colonies surviving G418 [1]: 300% | increase in proportions of colonies surviving G418 ([1]; no colonies without compounds): three-fold

CCCC(=O)OCC(COC(=O)CCC)OC(=O)CCC [tributyrin]
gamma globin expression after treatment (anemic juvenile baboons; intravenous 3 days, 500 to 750 mg/kg per day, from 0%): about 2.2 % of total non-alpha globin expression | fetal reticulocytes after treatment (anemic juvenile baboons; intravenous 3 days, 500 to 750 mg/kg per day, from 10%): 14%

CC(=Cc1ccccc1)C(=O)O [α-methyl cinnamic acid]
system A transport of amino acids (3H-MAIB uptake) [2]: do not significantly alter

CC(CO)C(N)=O (stereo not shown) [MHPP, 2 methyl-3-hydroxypropionamide, reference compound]
Gamma Increase ([3]; 0.05 mM): 2.0% | Gamma Increase ([3]; 1.0 mM): −3.5% | expression of fetal globin (FIG. 4) ([3]; concentrations above 0.25 mM): decreased the expression of fetal globin | expression of fetal globin (FIG. 4) ([3]; concentrations below 0.25 mM): increased fetal globin expression

CCCC(=O)OCC(O)CO (stereo not shown) [MB, monobutyrin]
induction of fetal globin mRNA in human cells [4]: significantly increased | Gamma/Alpha (fetal globin mRNA proportional to α-globin mRNA) ([4]; untreated 0.46): 0.73 | Gamma Globin mRNA (increase ↑) ([4]; versus untreated): 26% ↑ | fetal reticulocytes above basal levels (anemic juvenile baboons; intravenous each day, 4 days, 500 to 2,000 mg/kg): 220% | fetal reticulocytes after treatment (anemic juvenile baboons; intravenous each day, 4 days, 500 to 2,000 mg/kg, from 12%): 27%

CC(Cc1ccccc1)C(=O)O (stereo not drawn) [α-methyl hydrocinnamic acid]
system A transport of amino acids (3H-MAIB uptake) [2]: caused no significant inhibition and actually increased uptake of nutrients into cells | rise of total hemoglobin (anemic juvenile baboons; baboon, infused 8 h/day, 5 days: 500 mg/kg 2 days, 700 mg/kg 2 days, 1,000 mg/kg 1 day, over 3 days): 1.5 grams/dl | red blood cell count after treatment (anemic juvenile baboons; same regimen (500/700/1,000 mg/kg, 5 days), rose from 2.28): 3.53 ×10^6 red blood cells per microliter | total number of reticulocytes after treatment (anemic juvenile baboons; same regimen (500/700/1,000 mg/kg, 5 days), rose from 5.6%): 11% | total hemoglobin after treatment (anemic juvenile baboons; same regimen (500/700/1,000 mg/kg, 5 days), rose from 6.4): 7.9 grams/dl | packed red blood cell volume after treatment (anemic juvenile baboons; same regimen (500/700/1,000 mg/kg, 5 days), rose from 19.5%): 31.2 % of total blood volume | platelet count after treatment (anemic juvenile baboons; same regimen (500/700/1,000 mg/kg, 5 days), rose from 26.7): 46.8 ×10^4 cells/μl | total fetal globin synthesis after treatment (anemic juvenile baboons; second baboon, 500 mg/kg 8 h, 700 mg/kg 8 h, 700 mg/kg 2, 4 and 6 h, after 5 days, from 4.0%): 10.8% | rise of total hemoglobin (anemic juvenile baboons; second baboon, 500-700 mg/kg, 5 days): 1.4 grams | red blood cell counts after treatment (anemic juvenile baboons; second baboon, 500-700 mg/kg, 5 days, from 2.3×10^6): 2.82×10^6 | total hemoglobin after treatment (anemic juvenile baboons; second baboon, 500-700 mg/kg, 5 days, from 4.6): 6.0 g/dL | packed red blood cell volume after treatment (anemic juvenile baboons; second baboon, 500-700 mg/kg, 5 days, from 14.5%): 20.2% | white blood cell counts, maximum (anemic juvenile baboons; second baboon, 500-700 mg/kg, 5 days, from 8,700): 14,300 | platelet counts, high (anemic juvenile baboons; second baboon, 500-700 mg/kg, 5 days, from 328,000): 486,000 | adverse effects (anemic juvenile baboons; third baboon, 5 days): No adverse affects were observed | fetal globin protein synthesis after treatment (anemic juvenile baboons; third baboon, after 5 days, from 0%): 6.2 % of non-alpha globin | fetal hemoglobin producing reticulocytes after treatment (anemic juvenile baboons; third baboon, same dose, after 5 days (FIG. 8), from 0%): 10%
